Experimental data: US8895562B2, “Piperazin-1-yl-trifluoromethyl-substituted-pyridines as fast dissociating dopamine 2 receptor antagonists” (Janssen Pharmaceutica NV, priority 2008, dated 2014)
Counter-ions that a name gives are not always drawn. Like-named read-outs stand apart in the source and are kept apart here.

Legend:
[1] = molecular target: T1, human Dopamine D2L receptor (Homo sapiens, UniProt P14416); test: In vitro binding affinity for human D2L receptor ([3H]spiperone); details: membranes of human D2L receptor-transfected CHO cells, read-out: D2L binding pIC50 (converted)
T1 construct: expressed in transfected cells; host or cells: CHO cells (membranes)
From the text: In order to find antipsychotic compounds active against positive and negative symptoms and cognitive impairment, and having an improved safety profile (low EPS incidence and no metabolic disorders), we have screened for compounds selectively interacting with the dopamine D2 receptor and dissociating fast from this receptor, and further having affinity for the dopamine D3 receptor as well as the serotonin 5-HT-6 receptor. Compounds were first screened for their D2 affinity in a binding assay using [^3H]spiperone and human D2L receptor cell membranes.
Frozen membranes of human Dopamine D2L receptor-transfected CHO cells were thawed, briefly homogenised using an Ultra-Turrax T25 homogeniser and diluted in Tris-HCl assay buffer containing NaCl, CaCl2, MgCl2, KCl (50, 120, 2, 1, and 5 mM respectively, adjusted to pH 7.7 with HCl) to an appropriate protein concentration optimised for specific and non-specific binding. Radioligand [^3H]Spiperone (NEN, specific activity ˜70 Ci/mmol) was diluted in assay buffer at a concentration of 2 nmol/L. Prepared radioligand (50 μl), along with 50 μl of either the 10% DMSO control, Butaclamol (10^−6 mol/l final concentration), or compound of interest, was then incubated (30 min, 37° C.) with 400 μl of the prepared membrane solution. Membrane-bound activity was filtered through a Packard Filtermate harvester onto GF/B Unifilterplates and washed with ice-cold Tris-HCl buffer (50 mM; pH 7.7; 6×0.5 ml). Filters were allowed to dry before adding scintillation fluid and counting in a Topcount scintillation counter. Percentage specific bound and competition binding curves were calculated using S-Plus software (Insightful).

[2] = molecular target: T2, human Serotonin 5HT6 receptor (Homo sapiens, UniProt P50406); test: In vitro binding affinity for human 5HT6 receptor ([3H]LSD)
T2 construct: expressed in transfected cells; host or cells: HEK cells (membranes)
Procedure: Frozen membranes of human Serotonin 5HT6 receptor-transfected HEK cells were thawed, briefly homogenized using an Ultra-Turrax T25 homogeniser and diluted in 50 mM Tris-HCl assay buffer containing 10 mM MgCl2, 1 mM EDTA and 10 μM Pargyline (adjusted to pH 7.4 with HCl) to an appropriate protein concentration optimized for specific and non-specific binding. Radioligand [^3H]Lysergic acid diethylamide (Perkin Elmer, specific activity ˜80 Ci/mmol) was diluted in assay buffer at a concentration of 20 nM. Radioligand (20 μl), along with 40 μl of either the 10% DMSO control, Methiothepine (10^−5M final concentration), or compound of interest, was then incubated with 70 μl of the prepared membrane solution and 70 μl of WGA coated PVT beads (0.25 mg/well final concentration). After shaking for 24 hours at RT plates were counted in a Topcount™ scintillation counter. Percentage specific binding and competition binding curves were calculated using S-Plus software (Insightful).

[3] = molecular target: T3, human Dopamine D3 receptor (Homo sapiens, UniProt P35462); test: In vitro binding affinity for human D3 receptor ([125I]iodosulpride)
T3 construct: expressed in transfected cells; host or cells: CHO cells (membranes)
Procedure: Frozen membranes of human Dopamine D3 receptor-transfected CHO cells were thawed, briefly homogenized using an Ultra-Turrax T25 homogeniser and diluted in 50 mM Tris-HCl assay buffer containing 120 mM NaCl, 2 mM CaCl2, 1 mM MgCl2, 5 mM KCl and 0.1% BSA (adjusted to pH 7.4 with HCl) to an appropriate protein concentration optimized for specific and non-specific binding. Radioligand [^125I]Iodosulpride (Amersham, specific activity ˜2000 Ci/mmol) was diluted in assay buffer at a concentration of 2 nM. Prepared radioligand (20 μl), along with 40 μl of either the 10% DMSO control, Risperidone (10^−6M final concentration), or compound of interest, was then incubated with 70 μl of the prepared membrane solution and 70 μl of WGA coated PVT beads (0.25 mg/well final concentration). After shaking for 24 hours at RT plates were counted in a Topcount™ scintillation counter. Percentage specific binding and competition binding curves were calculated using S-Plus software (Insightful).

human D2L receptor = molecular target: T4, human D2L receptor (Homo sapiens, UniProt P14416); test: Fast dissociation, indirect assay ([3H]spiperone binding after pre-incubation with compound); details: compound at 4 times its IC50, 1 h pre-incubation at 25° C., then 5 min with 1 nM [3H]spiperone on filter
T4 construct: expressed in transfected cells
Procedure: Compounds were first screened for their D2 affinity in a binding assay using [^3H]spiperone and human D2L receptor cell membranes.
Compounds at a concentration of 4 times their IC50 were first incubated for one hour with human D2L receptor cell membranes in a volume of 2 ml at 25° C., then filtered over glass-fibre filter under suction using a 40 well multividor. Immediately after, the vacuum was released. 0.4 ml of pre-warmed buffer (25° C.) containing 1 nM [^3H]spiperone was added on the filter for 5 minutes. The incubation was stopped by initiating the vacuum and immediate rinsing with 2×5 ml of ice-cold buffer. The filter-bound radioactivity was measured in a liquid scintillation spectrometer. The principle of the assay is based on the assumption that the faster a compound dissociates from the D2 receptor, the faster [^3H]spiperone binds to the D2 receptor.

[4] = membranes of human 5HT6 receptor-transfected HEK cells, [3H]lysergic acid diethylamide, read-out: 5-HT6 binding pIC50 (converted)
[5] = membranes of human D3 receptor-transfected CHO cells, [125I]iodosulpride, read-out: D3 binding pIC50 (converted)

T2 sequence (P50406 whole entry): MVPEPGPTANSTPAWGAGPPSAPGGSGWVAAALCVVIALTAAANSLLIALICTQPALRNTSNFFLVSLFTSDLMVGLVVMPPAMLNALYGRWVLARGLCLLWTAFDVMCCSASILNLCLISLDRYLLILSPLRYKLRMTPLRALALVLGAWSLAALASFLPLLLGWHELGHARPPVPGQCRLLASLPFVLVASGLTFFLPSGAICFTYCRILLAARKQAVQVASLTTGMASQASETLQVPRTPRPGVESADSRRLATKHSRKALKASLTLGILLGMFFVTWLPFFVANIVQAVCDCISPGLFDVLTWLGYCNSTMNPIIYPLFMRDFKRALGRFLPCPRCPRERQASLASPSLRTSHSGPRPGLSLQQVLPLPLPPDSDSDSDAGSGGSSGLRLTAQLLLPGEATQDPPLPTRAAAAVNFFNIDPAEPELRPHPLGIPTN
T4 sequence (P14416 whole entry): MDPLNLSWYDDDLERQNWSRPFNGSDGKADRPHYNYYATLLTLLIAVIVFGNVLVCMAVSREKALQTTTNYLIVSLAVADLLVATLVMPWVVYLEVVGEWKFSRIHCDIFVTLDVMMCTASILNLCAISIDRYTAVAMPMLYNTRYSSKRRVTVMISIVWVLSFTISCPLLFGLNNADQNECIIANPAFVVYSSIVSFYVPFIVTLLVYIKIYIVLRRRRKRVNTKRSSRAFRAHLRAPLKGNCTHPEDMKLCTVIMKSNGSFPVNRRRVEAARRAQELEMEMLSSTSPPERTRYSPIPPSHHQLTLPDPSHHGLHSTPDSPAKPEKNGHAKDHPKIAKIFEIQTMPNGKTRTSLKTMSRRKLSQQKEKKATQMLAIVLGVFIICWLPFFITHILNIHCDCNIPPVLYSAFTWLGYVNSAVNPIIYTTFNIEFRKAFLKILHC
T1 sequence (P14416 whole entry): as above
T3 sequence (P35462 whole entry): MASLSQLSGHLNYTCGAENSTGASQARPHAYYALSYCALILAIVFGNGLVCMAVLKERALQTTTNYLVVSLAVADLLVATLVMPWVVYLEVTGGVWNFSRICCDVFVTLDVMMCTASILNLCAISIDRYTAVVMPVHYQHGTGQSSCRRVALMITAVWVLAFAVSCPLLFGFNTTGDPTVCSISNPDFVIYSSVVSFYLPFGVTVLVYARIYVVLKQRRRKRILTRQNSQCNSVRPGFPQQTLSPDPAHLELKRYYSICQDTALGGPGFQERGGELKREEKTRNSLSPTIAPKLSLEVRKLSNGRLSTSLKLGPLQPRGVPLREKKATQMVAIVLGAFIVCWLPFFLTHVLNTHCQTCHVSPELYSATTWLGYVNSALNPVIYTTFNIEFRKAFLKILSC

| SMILES | melting point [°C] | IC50 [1] [nM] | IC50 [2, 4] [nM] | IC50 [3, 5] [nM] | D2 dissociation ([3H]spiperone binding as % of total binding capacity) (human D2L receptor) [%] | IC50 [3] [nM] | IC50 [2] [nM] |
| --- | --- | --- | --- | --- | --- | --- | --- |
| N#Cc1nc(N2CCNCC2)cc(-c2ccccc2)c1C(F)(F)F (as salt: salt) [Example B2, 4-Phenyl-6-piperazin-1-yl-3-trifluoromethyl-pyridine-2-carbonitrile] | 255.3 |  |  |  |  |  |  |
| N#Cc1nc(C(F)(F)F)c(-c2ccccc2)cc1N1CCNCC1 [Example B7, 5-Phenyl-3-piperazin-1-yl-6-trifluoromethyl-pyridine-2-carbonitrile] |  | 3390 | 309 | 372 |  |  |  |
| COc1nc(C(F)(F)F)c(-c2ccc(F)cc2)cc1N1CCNCC1 [Example B6, 1-[5-(4-Fluoro-phenyl)-2-methoxy-6-trifluoromethyl-pyridin-3-yl]-piperazine] |  | 468 | 129 |  |  |  |  |
| COc1nc(C(F)(F)F)c(-c2ccccc2)cc1N1CCNCC1 [Example B5, 1-(2-Methoxy-5-phenyl-6-trifluoromethyl-pyridin-3-yl)-piperazine] |  | 204 | 93.3 |  | 66 |  |  |
| N#Cc1nc(N2CCNCC2)cc(-c2ccccc2)c1C(F)(F)F [Example B2, 4-Phenyl-6-piperazin-1-yl-3-trifluoromethyl-pyridine-2-carbonitrile] |  | 129 | 8.13 | 10.7 | 60 |  |  |
| COc1nc(C(F)(F)F)c(-c2ccc(F)cc2)cc1N1CCN(C(=O)OC(C)(C)C)CC1 [Example A16, 4-[5-(4-Fluoro-phenyl)-2-methoxy-6-trifluoromethyl-pyridin-3-yl]-piperazine-1-carboxylic acid tert-butyl ester] |  | 7940 | 224 | 2090 | 83 |  |  |
| FC(F)(F)c1ncc(N2CCNCC2)cc1-c1ccccc1 [Example B4, 1-(5-Phenyl-6-trifluoromethyl-pyridin-3-yl)-piperazine] |  | 479 | 138 |  | 69 | 33.9 |  |
| Cc1nc(C(F)(F)F)c(-c2ccccc2)cc1N1CCNCC1 [Example B8, 1-(2-Methyl-5-phenyl-6-trifluoromethyl-pyridin-3-yl)-piperazine] |  | 4790 | 170 | 2090 | 95 |  |  |
| Fc1ccc(-c2cc(N3CCNCC3)ncc2C(F)(F)F)cc1 [Example B1, 1-[4-(4-Fluoro-phenyl)-5-trifluoromethyl-pyridin-2-yl]-piperazine] | 80.6 | 3890 | 123 |  |  |  |  |
| COc1nc(N2CCNCC2)cc(-c2ccccc2)c1C(F)(F)F [Example B3, 1-(6-Methoxy-4-phenyl-5-trifluoromethyl-pyridin-2-yl)-piperazine] |  | 229 |  |  | 45 | 46.8 | 18.6 |
| COc1nc(C(F)(F)F)c(-c2ccccc2)cc1N1CCNCC1 (as salt: salt) [Example B5, 1-(2-Methoxy-5-phenyl-6-trifluoromethyl-pyridin-3-yl)-piperazine] | 184.8 |  |  |  |  |  |  |
